Assay results published in patent publication US11021457B2, “Class of isoindolone-imide ring-1,3-dione-2-ene compounds, composition and use thereof” (WIGEN BIOMEDICINE TECHNOLOGY (SHANGHAI) CO., LTD., priority 2017, dated 2021).
Where two headings read alike, the source gives them in different places.

Experiments:
[1] = tested on: A549; experiment: Inhibition of tumor cell proliferation, CellTiter-Glo, A549; assay type: cell-based; details: compound concentration 50 μM, 72 hours; for cell survival rate (% of control) at 50 µM: Homo sapiens, A549, read-out: Inhibitory activity against proliferation (cell survival rate) A549
Procedure, shortened: (§1)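 Cells seeded at 2000-10000 cells/well in complete medium at 37° C., 5% CO2; suspension lines dosed immediately, adherent lines after attachment. Viability by CellTiter-Glo luminescence at 72 h; survival % from blank-corrected RLU vs control. Scored at 50 μM: + (60-<90%), ++ (>30-60%), +++ (≤30%).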

[2] = target: LC3B (Homo sapiens (Human), UniProt Q9GZQ8); experiment: Fluorescence polarization experiment targeting LC3B (GST-LC3B with FITC-labeled peptide)
[3] = tested on: RPMI-8226; experiment: Inhibition of tumor cell proliferation, CellTiter-Glo, RPMI-8226; assay type: cell-based; details: compound concentration 50 μM, 72 hours; for cell survival rate (% of control) at 50 µM: Homo sapiens, RPMI-8226, read-out: Inhibitory activity against proliferation (cell survival rate) RPMI-8226
Procedure, shortened: as §1

[4] = tested on: K562; experiment: Inhibition of tumor cell proliferation, CellTiter-Glo, K562; assay type: cell-based; details: compound concentration 50 μM, 72 hours; for cell survival rate (%) at 50 µM: Homo sapiens, K562, read-out: Inhibitory activity against proliferation (cell survival rate) K562
Procedure, shortened: as §1

[5] = tested on: SU-DHL6; experiment: Inhibition of tumor cell proliferation, CellTiter-Glo, SU-DHL6; assay type: cell-based; details: compound concentration 50 μM, 72 hours; for cell survival rate (% of control) at 50 µM: Homo sapiens, SU-DHL-6, read-out: Inhibitory activity against proliferation (cell survival rate) SU-DHL6
Procedure, shortened: as §1

[6] = tested on: BxPC-3; experiment: Inhibition of tumor cell proliferation, CellTiter-Glo, BxPC-3; assay type: cell-based; details: compound concentration 50 μM, 72 hours; for cell survival rate (%) at 50 µM: Homo sapiens, BXPC-3, read-out: Inhibitory activity against proliferation (cell survival rate) BxPC-3
Procedure, shortened: as §1

[7] = tested on: MDA-MB-453; experiment: Inhibition of tumor cell proliferation, CellTiter-Glo, MDA-MB-453; assay type: cell-based; details: compound concentration 50 μM, 72 hours; for cell survival rate (%) at 50 µM: Homo sapiens, MDA-MB-453, read-out: Inhibitory activity against proliferation (cell survival rate) MDA-MB-453
Procedure, shortened: as §1

[8] = GST-LC3B 180 nM, FITC-labeled peptide 18 nM, 25° C.

SMILES	Inhibitory activity against proliferation (cell survival rate) A549 [1]	IC50 [2, 8]	Inhibitory activity against proliferation (cell survival rate) RPMI-8226 [3]	Inhibitory activity against proliferation (cell survival rate) K562 [4]	Inhibitory activity against proliferation (cell survival rate) SU-DHL6 [5]	Inhibitory activity against proliferation (cell survival rate) BxPC-3 [6]	Inhibitory activity against proliferation (cell survival rate) MDA-MB-453 [7]	cell survival rate (% of control) at 50 µM [1]	IC50 [2]	cell survival rate (% of control) at 50 µM [3]	cell survival rate (%) at 50 µM [4]	cell survival rate (% of control) at 50 µM [5]	cell survival rate (%) at 50 µM [6]	cell survival rate (%) at 50 µM [7]
O=C1CCC(N2Cc3c(NC=C4C(=O)CC(c5ccc(F)cc5Br)CC4=O)cccc3C2=O)C(=O)N1 (centres unmarked) [Compound 17]	++ (30<survival rate (%)≤60)	< 3 µM	+++ (survival rate (%)≤30)	+ (60≤survival rate (%)<90)	+ (60≤survival rate (%)<90)	+ (60≤survival rate (%)<90)	+ (60≤survival rate (%)<90)							
O=C1CCC(N2Cc3c(NC=C4C(=O)CC(c5ccccc5Br)CC4=O)cccc3C2=O)C(=O)N1 (centres unmarked) [Compound 18]	+ (60≤survival rate (%)<90)	< 3 µM	+ (60≤survival rate (%)<90)	++ (30<survival rate (%)≤60)	++ (30<survival rate (%)≤60)	+ (60≤survival rate (%)<90)	+ (60≤survival rate (%)<90)							
O=C1CCC(N2Cc3c(NC=C4C(=O)CC(c5ccc(F)cc5)CC4=O)cccc3C2=O)C(=O)N1 (centres unmarked) [Compound 19]	+ (60≤survival rate (%)<90)	< 3 µM	++ (30<survival rate (%)≤60)	++ (30<survival rate (%)≤60)	+ (60≤survival rate (%)<90)	++ (30<survival rate (%)≤60)	++ (30<survival rate (%)≤60)							
Cc1ccc(C2CC(=O)C(=CNc3cccc4c3CN(C3CCC(=O)NC3=O)C4=O)C(=O)C2)c(Br)c1 (centres unmarked) [Compound 20]	++ (30<survival rate (%)≤60)	< 3 µM	+ (60≤survival rate (%)<90)	++ (30<survival rate (%)≤60)	++ (30<survival rate (%)≤60)	+ (60≤survival rate (%)<90)	+ (60≤survival rate (%)<90)							
O=C1CCC(N2Cc3c(NC=C4C(=O)CC(c5ccc(C(F)(F)F)cc5)CC4=O)cccc3C2=O)C(=O)N1 (centres unmarked) [Compound 21]	++ (30<survival rate (%)≤60)	< 3 µM	+ (60≤survival rate (%)<90)	++ (30<survival rate (%)≤60)	+ (60≤survival rate (%)<90)	+ (60≤survival rate (%)<90)	+ (60≤survival rate (%)<90)							
CCOC(=O)C1C(=O)C(=CNc2cccc3c2CN(C2CCC(=O)NC2=O)C3=O)C(=O)CC1c1cccc2[nH]ccc12 (centres unmarked) [Compound 25]								60 to 90%	< 3 µM	60 to 90%	60 to 90%	60 to 90%	60 to 90%	60 to 90%
CCOC(=O)C1C(=O)C(=CNc2cccc3c2C(=O)N(C2CCC(=O)NC2=O)C3=O)C(=O)CC1c1cccc2[nH]ccc12 (centres unmarked) [Compound 26]								60 to 90%	< 3 µM	60 to 90%	60 to 90%	60 to 90%	60 to 90%	60 to 90%
O=C1CCC(N2Cc3c(NC=C4C(=O)CC(c5c[nH]c6ccccc56)CC4=O)cccc3C2=O)C(=O)N1 (centres unmarked) [Compound 38]	+++ (survival rate (%)≤30)	< 3 µM	+++ (survival rate (%)≤30)	+++ (survival rate (%)≤30)	+++ (survival rate (%)≤30)	++ (30<survival rate (%)≤60)	+++ (survival rate (%)≤30)							
O=C1CCC(N2Cc3c(NC=C4C(=O)CC(c5cccc6[nH]ncc56)CC4=O)cccc3C2=O)C(=O)N1 (centres unmarked) [Compound 39]	+ (60≤survival rate (%)<90)	< 3 µM	+ (60≤survival rate (%)<90)	+++ (survival rate (%)≤30)	++ (30<survival rate (%)≤60)	++ (30<survival rate (%)≤60)	+++ (survival rate (%)≤30)							
O=C1CCC(N2Cc3c(NC=C4C(=O)CC(c5c[nH]c6cccc(F)c56)CC4=O)cccc3C2=O)C(=O)N1 (centres unmarked) [Compound 41]	+++ (survival rate (%)≤30)	< 3 µM	+ (60≤survival rate (%)<90)	+++ (survival rate (%)≤30)	+ (60≤survival rate (%)<90)	+ (60≤survival rate (%)<90)	+ (60≤survival rate (%)<90)							
O=C1CCC(N2Cc3c(NC(=O)CNC=C4C(=O)CC(c5ccccc5)CC4=O)cccc3C2=O)C(=O)N1 (centres unmarked) [Compound 42]	++ (30<survival rate (%)≤60)	100 to 1000 µM	++ (30<survival rate (%)≤60)	++ (30<survival rate (%)≤60)	+ (60≤survival rate (%)<90)	+ (60≤survival rate (%)<90)	+ (60≤survival rate (%)<90)							
